The values below come from patent publication US20240409536A1, “COMPOUNDS AND METHODS FOR MODULATING SPLICING” (REMIX THERAPEUTICS INC., priority 2021, published 2024).

In one assay the test system is HTT mRNA. Description: Splicing RT-qPCR assay, HTT canonical (CJ) and alternative (AJ) junction mRNA. The format is cell-based. Particulars: Homo sapiens, A673 or K562 cells, 24 hours; for pIC50: decrease in canonical junction mRNA; for AC50: increase in alternative junction mRNA. The method in brief:
(§1)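 Splice switching was scored by qPCR detection of the new alternative-exon junction (AJ) alongside the canonical junction (CJ). Cell lines A673 or K562 received compound 24 h, top dose 10 uM final.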

For the next assay, the system named is MYB mRNA. Briefly: Splicing RT-qPCR assay, MYB canonical (CJ) and alternative (AJ) junction mRNA. Particulars: Homo sapiens, A673 or K562 cells, 24 hours; for pIC50: decrease in canonical junction mRNA; for AC50: increase in alternative junction mRNA. The format is cell-based. The method in brief:
as §1

Each structure is given as a SMILES string. pIC50: −log10 of the molar value.

Take `Cc1cn2cc(NC(=O)c3ccc(N4CCC(NC5CC5)CC4)c4nccnc34)cc(F)c2n1` [Compound 258, 8-(4-(cyclopropylamino)piperidin-1-yl)-N-(8-fluoro-2-methylimidazo[1,2-a]pyridin-6-yl)quinoxaline-5-carboxamide]: in the assay on HTT mRNA, the pIC50 was 6.00 to 7.00 and the AC50 was in the range of 0.1 to 1 µM. In the assay with MYB mRNA, this compound had a pIC50 of 6.00 to 7.00 and an AC50 of 0.1 to 1 µM.

In the case of `Cc1cn2cc(NC(=O)c3ccc(N4CCC(NC5CC5)CC4)c4ccnnc34)cc(F)c2n1` [Compound 259, 5-[4-(cyclopropylamino)piperidin-1-yl]-N-{8-fluoro-2-methylimidazo[1,2-a]pyridin-6-yl} cinnoline-8-carboxamide], the pIC50 in the assay on HTT mRNA is 6.00 to 7.00; in the assay with MYB mRNA it was more than 7.00. Also, the AC50 in the assay with HTT mRNA is 0.1 to 1 µM; in the assay with MYB mRNA it was less than 0.1 µM.

In the assay on HTT mRNA, `COc1nc2c(N3C[C@@H](C)N[C@@H](C)C3)ccc(C(=O)Nc3cc(F)c4nc(C)cn4c3)c2nc1C` [Compound 260, 8-((3R,5S)-3,5-dimethylpiperazin-1-yl)-N-(8-fluoro-2-methylimidazo[1,2-a]pyridin-6-yl)-2-methoxy-3-methylquinoxaline-5-carboxamide; 2,2,2-trifluoroacetate] gave a pIC50 of 6.00 to 7.00 and an AC50 of 1 to 10 µM. Also, in the assay with MYB mRNA, the pIC50 was 6.00 to 7.00 and the AC50 was in the range of 0.1 to 1 µM.

As for `Cc1cn2cc(NC(=O)c3c(F)cc(N4C[C@@H](C)N[C@@H](C)C4)c4nccnc34)cc(F)c2n1` [Compound 261, cis-8-[(3R,5S)-3,5-dimethylpiperazin-1-yl]-6-fluoro-N-{8-fluoro-2-methylimidazo[1,2-a]pyridin-6-yl}quinoxaline-5-carboxamide], in the assay with HTT mRNA, the pIC50 is 5.00 to 6.00 and the AC50 was in the range of 1 to 10 µM. In the assay with MYB mRNA, the pIC50 was more than 7.00 and the AC50 was less than 0.1 µM.

For the compound `Cc1cn2cc(NC(=O)c3ccc(N4C5CNCC54)c4nccnc34)cc(F)c2n1` (stereo not drawn) [Compound 262, 8-{3,6-diazabicyclo[3.1.0]hexan-6-yl}-N-{8-fluoro-2-methylimidazo[1,2-a]pyridin-6-yl}quinoxaline-5-carboxamide], the pIC50 in the assay on HTT mRNA and with MYB mRNA was 6.00 to 7.00 each time. Moreover, the AC50 in the assay with HTT mRNA and in the assay with MYB mRNA was 0.1 to 1 µM throughout.

As for `Cc1cn2cc(NC(=O)c3ccc(N4C[C@@H](C)N[C@@H](C5CC5)C4)c4nccnc34)cc(F)c2n1` [Compound 266, 8-((3S,5R)-3-cyclopropyl-5-methylpiperazin-1-yl)-N-(8-fluoro-2-methylimidazo[1,2-a]pyridin-6-yl)quinoxaline-5-carboxamide], in the assay on HTT mRNA, the negative-log IC50 (pIC50) was 5.00 to 6.00 and the AC50 lay within 0.1 to 1 µM. Moreover, in the assay on MYB mRNA, the pIC50 was more than 7.00 and the AC50 is less than 0.1 µM.

In the assay with HTT mRNA, `Cc1cn2cc(NC(=O)c3ccc(N4C[C@@H](C5CC5)N[C@@H](C)C4)c4nccnc34)cc(F)c2n1` [Compound 267, 8-((3R,5S)-3-cyclopropyl-5-methylpiperazin-1-yl)-N-(8-fluoro-2-methylimidazo[1,2-a]pyridin-6-yl)quinoxaline-5-carboxamide] gave a pIC50 of less than 5.00 and an AC50 of more than 10 µM. Further, in the assay on MYB mRNA, the pIC50 is 6.00 to 7.00 and the AC50 was 0.1 to 1 µM.

Turning to `COc1ccc2c(N3C[C@@H](C)N[C@@H](C)C3)ccc(C(=O)Nc3cc(F)c4nc(C)cn4c3)c2n1` [Compound 268, 5-[(3R,5S)-3,5-dimethylpiperazin-1-yl]-N-{8-fluoro-2-methylimidazo[1,2-a]pyridin-6-yl}-2-methoxyquinoline-8-carboxamide], in the assay with HTT mRNA, the pIC50 is 5.00 to 6.00 and the concentration at half-maximal activity (AC50) was in the range of 1 to 10 µM. Besides, in the assay with MYB mRNA, the pIC50 was 6.00 to 7.00 and the AC50 was less than 0.1 µM.

In the assay on HTT mRNA, `Cc1cn2cc(NC(=O)c3ccc(N4CC[C@@H](N)C4)c4ccnnc34)cc(F)c2n1` [Compound 270] gave a pIC50 of 5.00 to 6.00 and an AC50 of 1 to 10 µM. In the assay with MYB mRNA, this compound gave a pIC50 of 6.00 to 7.00 and an AC50 of less than 0.1 µM.

With `COc1cc2c(N3C[C@@H](C)N[C@@H](C)C3)ccc(C(=O)Nc3cc(F)c4nc(C)cn4c3)c2nn1` [Compound 273, 5-[(3R,5S)-3,5-dimethylpiperazin-1-yl]-N-{8-fluoro-2-methylimidazo[1,2-a]pyridin-6-yl}-3-methoxycinnoline-8-carboxamide], in the assay on HTT mRNA, the pIC50 is 6.00 to 7.00 and the AC50 was 0.1 to 1 µM. In the assay on MYB mRNA, this compound showed a pIC50 of 6.00 to 7.00 and an AC50 of 0.1 to 1 µM.

Take `Cc1cn2cc(NC(=O)c3ccc(N4C[C@@H](C)N[C@@H](C)C4)c4ncc(O)nc34)cc(F)c2n1` [Compound 275]: in the assay on HTT mRNA, the pIC50 was less than 5.00 and the AC50 was more than 10 µM. In the assay on MYB mRNA, this compound showed a pIC50 of less than 5.00 and an AC50 of more than 10 µM.

As for `COc1nc(NC(=O)c2ccc(N3C[C@@H](C)N[C@@H](C)C3)c3nccnc23)cn2cc(C)nc12` [Compound 277], the negative-log IC50 (pIC50) in the assay on HTT mRNA was 6.00 to 7.00; in the assay with MYB mRNA, more than 7.00. In addition, the AC50 is 1 to 10 µM in the assay on HTT mRNA and less than 0.1 µM in the assay on MYB mRNA.

In the assay on HTT mRNA, `Cc1cn2cc(NC(=O)c3ccc(N4C[C@@H](C)N[C@@H](C)C4)c4nccnc34)nc(Cl)c2n1` [Compound 279] gave a pIC50 of less than 5.00 and a concentration at half-maximal activity (AC50) of more than 10 µM. In the assay with MYB mRNA, this compound gave a pIC50 of more than 7.00 and an AC50 of 0.1 to 1 µM.

In the assay with HTT mRNA, `Cc1cn2cc(NC(=O)c3ccc(N4C[C@@H](C)N[C@@H](C)C4)c4ncc(Cl)nc34)cc(F)c2n1` [Compound 281] had a pIC50 of less than 5.00 and a concentration at half-maximal activity (AC50) of more than 10 µM. In the assay with MYB mRNA, this compound had a pIC50 of 5.00 to 6.00 and an AC50 of 1 to 10 µM.

With `Cc1cn2cc(NC(=O)c3ccc(N4C[C@@H](C)N[C@@H](C)C4)c4ncc(N(C)C)nc34)cc(F)c2n1` [Compound 283], in the assay with HTT mRNA, the pIC50 is 6.00 to 7.00 and the AC50 was 0.1 to 1 µM. In the assay with MYB mRNA, this compound had a negative-log IC50 (pIC50) of more than 7.00 and an AC50 of 0.1 to 1 µM.

In the assay with HTT mRNA, `Cc1cn2c(C)c(NC(=O)c3ccc(N4C[C@@H](C)N[C@@H](C)C4)c4nccnc34)cc(F)c2n1` [Compound 285] showed a pIC50 of 5.00 to 6.00 and an AC50 of 1 to 10 µM. For the same compound, in the assay on MYB mRNA, the pIC50 was 6.00 to 7.00 and the AC50 lay within 1 to 10 µM.

With `COc1nc(NC(=O)c2ccc(N3C[C@@H](C)N[C@@H](C)C3)c3nccnc23)nc2cn(C)nc12` [Compound 287], in the assay on HTT mRNA, the pIC50 was less than 5.00 and the AC50 is more than 10 µM. Moreover, in the assay on MYB mRNA, the negative-log IC50 (pIC50) is 5.00 to 6.00 and the AC50 was more than 10 µM.

With `Cc1cn2cc(NC(=O)c3ccc(N4C[C@@H](C)N[C@@H](C)C4)c4nccnc34)nc(C)c2n1` [Compound 288], in the assay on HTT mRNA, the pIC50 was 5.00 to 6.00 and the AC50 lay within 1 to 10 µM. In the assay with MYB mRNA, this compound had a pIC50 of more than 7.00 and an AC50 of less than 0.1 µM.

Turning to `C[C@@H]1CN(c2ccc(C(=O)Nc3ccc4nc(N(C)C)oc4c3)c3nccnc23)C[C@H](C)N1` [Compound 290], the figures for the pIC50 in the assay on HTT mRNA and in the assay on MYB mRNA were less than 5.00 and 5.00 to 6.00, respectively. In addition, the AC50 in the assay on HTT mRNA and in the assay with MYB mRNA was more than 10 µM in each case.

In the assay on HTT mRNA, `COc1nc2ccc(NC(=O)c3ccc(N4C[C@@H](C)N[C@@H](C)C4)c4nccnc34)cc2o1` [Compound 292] showed a pIC50 of less than 5.00 and an AC50 of more than 10 µM. In the assay on MYB mRNA, this compound had a pIC50 of 5.00 to 6.00 and an AC50 of more than 10 µM.

In the case of `Cc1cn2cc(NC(=O)c3ccc(N4C[C@@H](C)N[C@@H](C)C4)c4nccnc34)cc(C#N)c2n1` [Compound 294], the pIC50 in the assay on HTT mRNA was 5.00 to 6.00; in the assay on MYB mRNA it was 6.00 to 7.00. The values for the AC50 in the assay on HTT mRNA and in the assay with MYB mRNA were more than 10 µM and 0.1 to 1 µM, respectively.
